Our source for the pest or weed control values is patent publication US9204653B2, “5-fluoro pyrimidine derivatives” (DOW AGROSCIENCES LLC, priority 2008, dated 2015).

Like-named read-outs stand apart in the source and are kept apart here.

The experiment relates to Mycosphaerella graminicola; Anamorph: Septoria tritici; Bayer Code SEPTTR. Put plainly: Leaf blotch of wheat, foliar fungicide treatment, one day protectant (1DP) or three day curative (3DC). It is filed as in vivo, Septoria tritici on wheat plants (variety Yuma). To be noted: Zymoseptoria tritici, percent disease control rating.
Setting [1] is: 24 h, one day protectant (1DP), read-out: SETTTR 1DP 25 ppm.
Where [2] appears, read: 24 h, one day protectant (1DP), read-out: SEPTTR 1DP 100 ppm.
Where [3] appears, read: 72 h, three day curative (3DC), read-out: SEPTTR 3DC 25 ppm.
[4] abbreviates: 72 h, three day curative (3DC), read-out: SEPTTR 3DC 100 ppm.

`Nc1nc(OCc2cccc(Br)c2)ncc1F` [Compound 2, 2-(3-Bromobenzyloxy)-5-fluoropyrimidin-4-ylamine]: the pest or weed control at 25 ppm runs as follows: under setting [1], 76 to 100%; under setting [3], 76 to 100%. In addition, the pest or weed control at 100 ppm by setting is: under setting [2], 76 to 100%; under setting [4], 76 to 100%.

With `CC(=O)Nc1nc(OCc2cccs2)ncc1F` [Compound 6, N-[5-Fluoro-2-(thiophen-2-ylmethoxy)pyrimidin-4-yl]acetamide], the pest or weed control at 25 ppm runs as follows: under setting [1], 76 to 100%; under setting [3], 76 to 100%. Also, the pest or weed control at 100 ppm lay within 76 to 100% under setting [2] and 76 to 100% under setting [4].

Consider `CC[Si](CC)(CC)Nc1nc(OCc2ccc(F)cc2)ncc1F` [Compound 8, [5-Fluoro-2-(4-fluorobenzyloxy)pyrimidin-4-yl]triethylsilanylamine], for which the pest or weed control at 25 ppm was 76 to 100% under setting [1] and 76 to 100% under setting [3]. The pest or weed control at 100 ppm under setting [2] lay in the range of 76 to 100% and the pest or weed control at 100 ppm under setting [4] lay within 76 to 100%.

For the molecule `O=C(Nc1nc(OCc2ccc(F)cc2)ncc1F)c1snc(Cl)c1Cl` [Compound 12, 3,4-Dichloroisothiazole-5-carboxylic acid [5-fluoro-2-(4-fluorobenzyl-oxy)pyrimidin-4-yl]amide], the pest or weed control at 25 ppm is, setting by setting: under setting [1], 76 to 100%; under setting [3], 76 to 100%. Further, the pest or weed control at 100 ppm is 76 to 100% under setting [2] and 76 to 100% under setting [4].

On to `Cc1ccc(COc2ncc(F)c(NCO)n2)cc1` [Compound 16, [5-Fluoro-2-(4-methylbenzyloxy)pyrimidin-4-ylamino]methanol], for which the pest or weed control at 25 ppm reads like this: under setting [1], 76 to 100%; under setting [3], 76 to 100%. The pest or weed control at 100 ppm is 76 to 100% under setting [2] and 76 to 100% under setting [4].

Take `OCNc1nc(OCc2ccc(F)cc2)ncc1F` [Compound 17]: the pest or weed control at 25 ppm runs as follows: under setting [1], 76 to 100%; under setting [3], 76 to 100%. For the same molecule, the pest or weed control at 100 ppm is, setting by setting: under setting [2], 76 to 100%; under setting [4], 76 to 100%.

For `Fc1ccc(COc2ncc(F)c(NCOCc3ccccc3)n2)cc1` [Compound 18, Benzyloxymethyl[5-fluoro-2-(4-fluorobenzyloxy)pyrimidin-4-yl]amine], the pest or weed control at 25 ppm runs as follows: under setting [1], 51 to 75%; under setting [3], 51 to 75%. Also, the pest or weed control at 100 ppm is, setting by setting: under setting [2], 76 to 100%; under setting [4], 51 to 75%.

With `CC(C)(C)C(=O)OCNc1nc(OCc2ccc(F)cc2)ncc1F` [Compound 19, 2,2-Dimethylpropionic acid[5-fluoro-2-(4-fluorobenzyloxy)pyrimidin-4-ylamino]methyl ester], the pest or weed control at 25 ppm is, setting by setting: under setting [1], 76 to 100%; under setting [3], 51 to 75%. In addition, the pest or weed control at 100 ppm runs as follows: under setting [2], 76 to 100%; under setting [4], 76 to 100%.

With `Fc1ccc(COc2ncc(F)c(/N=C/N3CCCC3)n2)cc1` [Compound 21, [5-Fluoro-2-(4-fluorobenzyloxy)pyrimidin-4-yl]-[1-pyrrolidin-1-yl-methylidene]amine], the pest or weed control at 25 ppm reads like this: under setting [1], 76 to 100%; under setting [3], 76 to 100%. For the same molecule, the pest or weed control at 100 ppm is, setting by setting: under setting [2], 76 to 100%; under setting [4], 76 to 100%.

Turning to `O/N=C\Nc1nc(OCc2ccc(F)cc2)ncc1F` [Compound 22, N-[5-Fluoro-2-(4-fluorobenzyloxy)pyrimidin-4-yl]-N′-hydroxy-formamidine], the pest or weed control at 25 ppm under setting [1] is 76 to 100% and the pest or weed control at 25 ppm under setting [3] lay within 76 to 100%. The pest or weed control at 100 ppm lay within 76 to 100% under setting [2] and 76 to 100% under setting [4].

`CN(C)/C=N/c1nc(O)ncc1F` [Compound 25, N′-(5-Fluoro-2-hydroxy-pyrimidin-4-yl)-N,N-dimethyl-formamidine]: the pest or weed control at 25 ppm runs as follows: under setting [1], 76 to 100%; under setting [3], 76 to 100%. In addition, the pest or weed control at 100 ppm under setting [2] lay within 76 to 100% and the pest or weed control at 100 ppm under setting [4] fell in the range of 76 to 100%.

`CCOC(=O)Oc1ncc(F)c(/N=C/N(C)C)n1` [Compound 26, Carbonic acid 4-(dimethylamino-methyleneamino)-5-fluoropyrimidin-2-yl ester ethyl ester]: the pest or weed control at 25 ppm reads like this: under setting [1], 76 to 100%; under setting [3], 76 to 100%. For the same molecule, the pest or weed control at 100 ppm by setting is: under setting [2], 76 to 100%; under setting [4], 76 to 100%.

Consider `CN(C)/C=N/c1nc(OC(=O)c2ccccc2)ncc1F` [Compound 27, Benzoic acid 4-(dimethylamino-methyleneamino)-5-fluoropyrimidin-2-yl ester], for which the pest or weed control at 25 ppm lay within 76 to 100% under setting [1] and 76 to 100% under setting [3]. In addition, the pest or weed control at 100 ppm runs as follows: under setting [2], 76 to 100%; under setting [4], 76 to 100%.

As to `CN(C)/C=N/c1nc(OS(=O)(=O)c2ccccc2)ncc1F` [Compound 28, Benzenesulfonic acid 4-(dimethylamino-methyleneamino)-5-fluoro-pyrimidin-2-yl ester], the pest or weed control at 25 ppm under setting [1] was 76 to 100% and the pest or weed control at 25 ppm under setting [3] lay within 76 to 100%. Further, the pest or weed control at 100 ppm was in the range of 76 to 100% under setting [2] and 76 to 100% under setting [4].

`Nc1nc(OS(=O)(=O)c2ccccc2)ncc1F` [Compound 29, Benzenesulfonic acid 4-amino-5-fluoropyrimidin-2-yl ester]: the pest or weed control at 25 ppm is, setting by setting: under setting [1], 76 to 100%; under setting [3], 51 to 75%. Moreover, the pest or weed control at 100 ppm is, setting by setting: under setting [2], 76 to 100%; under setting [4], 76 to 100%.

Take `Fc1ccc(COc2ncc(F)c(NCc3ccccc3F)n2)cc1` [Compound 30, (2-Fluorobenzyl)-[5-fluoro-2-(4-fluorobenzyloxy)pyrimidin-4-yl]amine]: the pest or weed control at 25 ppm by setting is: under setting [1], 51 to 75%; under setting [3], 51 to 75%. The pest or weed control at 100 ppm is, setting by setting: under setting [2], 76 to 100%; under setting [4], 76 to 100%.

On to `COc1ccc(N(N)c2nc(OCc3cccc(OC)c3)ncc2F)cc1` [Compound 31, 5-Fluoro-2-(3-methoxybenzyloxy)-4-(1-(4-methoxyphenyl)-hydrazinyl)pyrimidine], for which the pest or weed control at 25 ppm under setting [1] lay within 0 to 25% and the pest or weed control at 25 ppm under setting [3] fell in the range of 0 to 25%. The pest or weed control at 100 ppm fell in the range of 0 to 25% under setting [2] and 0 to 25% under setting [4].

Take `C=CCONc1nc(OCc2cccc(OC)c2)ncc1F` [Compound 32, O-Allyl-N-(5-fluoro-2-(3-methoxybenzyloxy)pyrimidin-4-yl)hydroxylamine]: the pest or weed control at 25 ppm was in the range of 26 to 50% under setting [1] and 0 to 25% under setting [3]. In addition, the pest or weed control at 100 ppm under setting [2] was in the range of 76 to 100% and the pest or weed control at 100 ppm under setting [4] lay within 76 to 100%.

As to `N#Cc1cccc(COc2ncc(F)c(N)n2)c1` [Compound 33], the pest or weed control at 25 ppm under setting [1] lay in the range of 76 to 100% and the pest or weed control at 25 ppm under setting [3] was in the range of 76 to 100%. Besides, the pest or weed control at 100 ppm is, setting by setting: under setting [2], 76 to 100%; under setting [4], 76 to 100%.

For the molecule `N#Cc1cccc(COc2ncc(F)c(NC(=O)NCc3ccccc3F)n2)c1` [Compound 34, 1-[2-(3-Cyanobenzyloxy)-5-fluoropyrimidin-4-yl]-3-(2-fluorobenzyl)urea], the pest or weed control at 25 ppm by setting is: under setting [1], 0 to 25%; under setting [3], 0 to 25%. Besides, the pest or weed control at 100 ppm under setting [2] was 0 to 25% and the pest or weed control at 100 ppm under setting [4] lay in the range of 0 to 25%.

For the molecule `CCCNC(=S)Nc1nc(OCc2ccc(F)cc2)ncc1F` [Compound 37], the pest or weed control at 25 ppm lay within 76 to 100% under setting [1] and 76 to 100% under setting [3]. Also, the pest or weed control at 100 ppm runs as follows: under setting [2], 76 to 100%; under setting [4], 76 to 100%.

Regarding `Cc1ccc(COc2ncc(F)c(NS(C)(=O)=O)n2)cc1` [Compound 38, N-[5-Fluoro-2-(4-methylbenzyloxy)pyrimidin-4-yl]methanesulfonamide], the pest or weed control at 25 ppm fell in the range of 26 to 50% under setting [1] and 0 to 25% under setting [3]. Besides, the pest or weed control at 100 ppm runs as follows: under setting [2], 26 to 50%; under setting [4], 26 to 50%.

Consider `O=[N+]([O-])c1ccccc1SNc1nc(OCc2ccc(F)cc2)ncc1F` [Compound 39, N-[5-Fluoro-2-(4-fluorobenzyloxy)-pyrimidin-4-yl]-S-(2-nitrophenyl)-thiohydroxylamine], for which the pest or weed control at 25 ppm under setting [1] was in the range of 76 to 100% and the pest or weed control at 25 ppm under setting [3] was 0 to 25%. For the same molecule, the pest or weed control at 100 ppm was in the range of 76 to 100% under setting [2] and 0 to 25% under setting [4].

Take `COc1cccc(COc2ncc(F)c(NS(N)(=O)=O)n2)c1` [Compound 43, [5-Fluoro-2-(3-methoxybenzyloxy)pyrimidin-4-yl]sulfamide]: the pest or weed control at 25 ppm under setting [1] fell in the range of 26 to 50% and the pest or weed control at 25 ppm under setting [3] lay in the range of 51 to 75%. For the same molecule, the pest or weed control at 100 ppm reads like this: under setting [2], 51 to 75%; under setting [4], 51 to 75%.

Consider `COc1cccc(COc2ncc(F)c(NN)n2)c1` [Compound 44, 5-Fluoro-4-hydrazinyl-2-(3-methoxybenzyloxy)pyrimidine], for which the pest or weed control at 25 ppm lay in the range of 0 to 25% under setting [1] and 51 to 75% under setting [3]. The pest or weed control at 100 ppm reads like this: under setting [2], 76 to 100%; under setting [4], 76 to 100%.

`COc1cccc(COc2ncc(F)c(N/N=C/c3cccs3)n2)c1` [Compound 45, (E)-5-Fluoro-2-(3-methoxybenzyloxy)-4-(2-(thiophen-2-ylmethylene)-hydrazinyl)pyrimidine]: the pest or weed control at 25 ppm runs as follows: under setting [1], 51 to 75%; under setting [3], 26 to 50%. In addition, the pest or weed control at 100 ppm lay in the range of 76 to 100% under setting [2] and 26 to 50% under setting [4].

As for `CCCNC(=S)Nc1nc(OCc2ccc(C)cc2)ncc1F` [Compound 48], the pest or weed control at 25 ppm under setting [1] was in the range of 76 to 100% and the pest or weed control at 25 ppm under setting [3] fell in the range of 76 to 100%. Moreover, the pest or weed control at 100 ppm reads like this: under setting [2], 76 to 100%; under setting [4], 76 to 100%.
